Data taken from patent publication US20200306295A1, “METHOD AND DEVICE FOR ANNIHILATION OF Staphylococcus aureus” (priority 2017, published 2020).

System: 200 kinds of cytokines
Assay: Fold change of 200 cytokines in homogenized wound tissue
Type: in vivo, Balb/c mice
Text: To quantify the physiological condition of the wound tissues, we measured the concentrations of 200 kinds of cytokines (Table. 1) from the supernatant of homogenized tissue solution. Cytokines are small secreted proteins released by cells and have specific effect on the interactions and communications between cells (25).
To initiate the formation of a skin wound, five groups (n=5) of eight-week old female Balb/c mice (obtained from Harlan Laboratories, Indianapolis, Ind., USA) were disinfected with ethanol (70%) and shaved on the middle of the back (approximately a one-inch by one-inch square region around the injection site) one day prior to infection as described from a reported procedure (3). To prepare the bacterial inoculum, an aliquot of overnight culture of MRSA USA300 was transferred to fresh Tryptic soy broth and shaken at 37° C. until an OD600 value of ˜1.0 was achieved. The cells were centrifuged, washed once with PBS, re-centrifuged, and then re-suspended in PBS. Mice subsequently received an intradermal injection (40 μL) containing 2.40×10^9 CFU/mL MRSA USA300.
One group of mice was left untreated (negative control). Each group of mice receiving a particular treatment regimen was housed separately in a ventilated cage with appropriate bedding, food, and water. […] Mice were treated twice daily (once every 12 hours) for three days, before they were humanely euthanized via CO2 asphyxiation 12 hours after the last dose was administered. The region around the skin wound was lightly swabbed with ethanol (70%) and excised. The tissue was subsequently homogenized in PBS. The homogenized tissue was then serially diluted in PBS before plating onto mannitol salt agar plates. Plates were incubated for at least 19 hours at 37° C. before viable MRSA CFU/mL were counted for each group. Outlier was removed based upon the Dixon Q Test.

OO [H2O2, hydrogen peroxide]
share of 200 cytokines with negative fold change vs untreated (blue light and H2O2-treated group): Over 85%
fold change of MBL-2 (mean) (cytokine MBL-2, group mean, wound tissue of MRSA-infected mice): −0.0587
fold change of Meteorin (mean) (cytokine Meteorin, group mean, wound tissue of MRSA-infected mice): 0.4850
fold change of NOV (mean) (cytokine NOV, group mean, wound tissue of MRSA-infected mice): −0.1756
fold change of Nope (mean) (cytokine Nope, group mean, wound tissue of MRSA-infected mice): −0.2914
fold change of OX40 Ligand (mean) (cytokine OX40 Ligand, group mean, wound tissue of MRSA-infected mice): 0.2366
fold change of Osteoactivin (mean) (cytokine Osteoactivin, group mean, wound tissue of MRSA-infected mice): 0.4709
fold change of P-Cadherin (mean) (cytokine P-Cadherin, group mean, wound tissue of MRSA-infected mice): −0.0660
fold change of Periostin (mean) (cytokine Periostin, group mean, wound tissue of MRSA-infected mice): −0.5519
fold change of PlGF-2 (mean) (cytokine PlGF-2, group mean, wound tissue of MRSA-infected mice): −0.0738
fold change of Progranulin (mean) (cytokine Progranulin, group mean, wound tissue of MRSA-infected mice): −0.6229
fold change of Prostasin (mean) (cytokine Prostasin, group mean, wound tissue of MRSA-infected mice): 1.1226
fold change of Renin 1 (mean) (cytokine Renin 1, group mean, wound tissue of MRSA-infected mice): −0.3457
fold change of TIM-1 (mean) (cytokine TIM-1, group mean, wound tissue of MRSA-infected mice): −0.1106
fold change of Testican 3 (mean) (cytokine Testican 3, group mean, wound tissue of MRSA-infected mice): −0.1883
fold change of Tryptase ε (mean) (cytokine Tryptase ε, group mean, wound tissue of MRSA-infected mice): 0.3620
fold change of 4-1BB (mean, wound tissue): −0.2733
fold change of 6Ckine (mean, wound tissue): −0.3474
fold change of ACE (mean, wound tissue): −0.8627
fold change of ADAMTS1 (mean, wound tissue): 0.1068
fold change of ALK-1 (mean, wound tissue): −0.1821
fold change of ANG-3 (mean, wound tissue): −0.1019
fold change of ANGPTL3 (mean, wound tissue): −0.1222
fold change of AR (mean, wound tissue): −0.1343
fold change of Activin A (mean, wound tissue): 0.0097
fold change of Adiponen (mean, wound tissue): −0.0278
fold change of Artemin (mean, wound tissue): 0.0433
fold change of Axl (mean, wound tissue): −0.1455
fold change of B7-1 (mean, wound tissue): 0.2808
fold change of BAFF R (mean, wound tissue): 0.0988
fold change of BLC (mean, wound tissue): −0.1960
fold change of BTC (mean, wound tissue): 0.9018
fold change of C5a (mean, wound tissue): 0.1618
fold change of CCL6 (mean, wound tissue): −0.3559
fold change of CCL28 (mean, wound tissue): −0.6841
fold change of CD6 (mean, wound tissue): −0.2795
fold change of CD27 (mean, wound tissue): 0.1670
fold change of CD27L (mean, wound tissue): 0.1373
fold change of CD30 (mean, wound tissue): −0.0510
fold change of CD30L (mean, wound tissue): −0.0733
fold change of CD36 (mean, wound tissue): −0.4456
fold change of CD40 (mean, wound tissue): −0.1007
fold change of CD40L (mean, wound tissue): −0.2549
fold change of CD48 (mean, wound tissue): −0.3656
fold change of CRP (mean, wound tissue): −0.2262
fold change of CT-1 (mean, wound tissue): −0.3499
fold change of CTLA4 (mean, wound tissue): −0.1747
fold change of CXCL16 (mean, wound tissue): −0.2162
fold change of Chemerin (mean, wound tissue): −0.2510
fold change of Chordin (mean, wound tissue): −0.0093
fold change of Clusterin (mean, wound tissue): 0.1123
fold change of Cystatin C (mean, wound tissue): 0.0313
fold change of DLL4 (mean, wound tissue): −0.0364
fold change of Decorin (mean, wound tissue): −0.0051
fold change of Dkk-1 (mean, wound tissue): −0.4175
fold change of Dtk (mean, wound tissue): −0.3288
fold change of E-Cadherin (mean, wound tissue): −0.1379
fold change of E-selectin (mean, wound tissue): −0.1083
fold change of EDAR (mean, wound tissue): 0.0841
fold change of EGF (mean, wound tissue): −0.2293
fold change of Endocan (mean, wound tissue): −0.0335
fold change of Endoglin (mean, wound tissue): −0.6886
fold change of Eotaxin (mean, wound tissue): 0.8584
fold change of Eotaxin-2 (mean, wound tissue): −0.5961
fold change of Epigen (mean, wound tissue): −0.1588
fold change of Epiregulin (mean, wound tissue): −0.2878
fold change of Fas (mean, wound tissue): −0.3001
fold change of Fas L (mean, wound tissue): −0.2203
fold change of Fcg RIIB (mean, wound tissue): 0.2388
fold change of Fetuin A (mean, wound tissue): −0.5133
fold change of Flt-3L (mean, wound tissue): −0.2615
fold change of Fractalkine (mean, wound tissue): 0.4416
fold change of G-CSF (mean, wound tissue): −0.4083
fold change of GITR (mean, wound tissue): −0.1455
fold change of GITR L (mean, wound tissue): −0.0425
fold change of GM-CSF (mean, wound tissue): −0.1960
fold change of Galectin-1 (mean, wound tissue): −0.1195
fold change of Galectin-3 (mean, wound tissue): 0.0550
fold change of Galectin-7 (mean, wound tissue): −0.3150
fold change of Gas 1 (mean, wound tissue): −0.7018
fold change of Gas 6 (mean, wound tissue): −0.3085
fold change of Granzyme B (mean, wound tissue): 0.2145
fold change of Gremlin (mean, wound tissue): −0.8057
fold change of H60 (mean, wound tissue): −0.0250
fold change of HAI-1 (mean, wound tissue): −0.0794
fold change of HGF (mean, wound tissue): 0.2749
fold change of HGF R (mean, wound tissue): 0.0240
fold change of I-TAC (mean, wound tissue): −0.1457
fold change of ICAM-1 (mean, wound tissue): −0.0362
fold change of IFNg (mean, wound tissue): −0.2366
fold change of IFNg R1 (mean, wound tissue): −0.2832
fold change of IGF-1 (mean, wound tissue): 0.2487
fold change of IGFBP-2 (mean, wound tissue): 0.0153
fold change of IGFBP-3 (mean, wound tissue): −0.2116
fold change of IGFBP-5 (mean, wound tissue): 0.0442
fold change of IGFBP-6 (mean, wound tissue): −0.2308
fold change of IL-1 R4 (mean, wound tissue): 0.0090
fold change of IL-1a (mean, wound tissue): 0.0141
fold change of IL-1b (mean, wound tissue): 0.2075
fold change of IL-1ra (mean, wound tissue): 0.1670
fold change of IL-2 (mean, wound tissue): −0.1860
fold change of IL-2 Ra (mean, wound tissue): 0.2015
fold change of IL-3 (mean, wound tissue): −0.1781
fold change of IL-3 Rb (mean, wound tissue): −0.0953
fold change of IL-4 (mean, wound tissue): −0.2011
fold change of IL-5 (mean, wound tissue): −0.3106
fold change of IL-6 (mean, wound tissue): −0.2775
fold change of IL-7 (mean, wound tissue): −0.0083
fold change of IL-7 Ra (mean, wound tissue): −0.4620
fold change of IL-9 (mean, wound tissue): 0.0482
fold change of IL-10 (mean, wound tissue): −0.1759
fold change of IL-12p40 (mean, wound tissue): 0.0200
fold change of IL-12p70 (mean, wound tissue): −0.1362
fold change of IL-13 (mean, wound tissue): −0.4855
fold change of IL-15 (mean, wound tissue): −0.1351
fold change of IL-17 (mean, wound tissue): 1.4006
fold change of IL-17B (mean, wound tissue): −0.2485
fold change of IL-17B R (mean, wound tissue): 0.0438
fold change of IL-17E (mean, wound tissue): −0.3214
fold change of IL-17F (mean, wound tissue): 0.6993
fold change of IL-20 (mean, wound tissue): −0.1274
fold change of IL-21 (mean, wound tissue): −0.5851
fold change of IL-22 (mean, wound tissue): −0.5330
fold change of IL-23 (mean, wound tissue): 0.1392
fold change of IL-28 (mean, wound tissue): 0.2046
fold change of IL-33 (mean, wound tissue): −0.6370
fold change of JAM-A (mean, wound tissue): −0.2998
fold change of KC (mean, wound tissue): −0.0602
fold change of Kremen-1 (mean, wound tissue): −0.4532
fold change of L-Selectin (mean, wound tissue): −0.1755
fold change of LIX (mean, wound tissue): −0.2304
fold change of LOX-1 (mean, wound tissue): 0.0229
fold change of Leptin (mean, wound tissue): −0.1401
fold change of Leptin R (mean, wound tissue): −0.1563
fold change of Limitin (mean, wound tissue): 0.5441
fold change of Lipocalin-2 (mean, wound tissue): −0.0669
fold change of Lungkine (mean, wound tissue): −0.0954
fold change of Lymphotactin (mean, wound tissue): 0.0191
fold change of MCP-1 (mean, wound tissue): 0.9431
fold change of MCP-5 (mean, wound tissue): −0.8808
fold change of MCSF (mean, wound tissue): −0.0002
fold change of MDC (mean, wound tissue): 0.5488
fold change of MFG-E8 (mean, wound tissue): −0.1414
fold change of MIG (mean, wound tissue): −0.1127
fold change of MIP-1a (mean, wound tissue): −0.3107
fold change of MIP-1b (mean, wound tissue): −0.4967
fold change of MIP-1g (mean, wound tissue): −0.0241
fold change of MIP-2 (mean, wound tissue): −0.0277
fold change of MIP-3a (mean, wound tissue): 0.3267
fold change of MIP-3b (mean, wound tissue): −0.1993
fold change of MMP-2 (mean, wound tissue): −0.5768
fold change of MMP-3 (mean, wound tissue): −0.0983
fold change of MMP-10 (mean, wound tissue): −0.1476
fold change of MadCAM-1 (mean, wound tissue): −0.3032
fold change of Marapsin (mean, wound tissue): −0.0476
fold change of Neprilysin (mean, wound tissue): −0.2555
fold change of OPG (mean, wound tissue): −0.2142
fold change of OPN (mean, wound tissue): −0.2307
fold change of P-selectin (mean, wound tissue): −0.4006
fold change of PDGF-AA (mean, wound tissue): −0.4666
fold change of PF4 (mean, wound tissue): −0.7429
fold change of Pentraxin 3 (mean, wound tissue): −0.7179
fold change of Persephin (mean, wound tissue): −0.3386
fold change of Pro-MMP-9 (mean, wound tissue): 0.0213
fold change of Prolactin (mean, wound tissue): 0.2852
fold change of RAGE (mean, wound tissue): −0.0350
fold change of RANTES (mean, wound tissue): −0.4249
fold change of Resistin (mean, wound tissue): −0.3623
fold change of SCF (mean, wound tissue): 0.1915
fold change of SDF-1a (mean, wound tissue): −0.0807
fold change of SLAM (mean, wound tissue): −0.0883
fold change of Shh-N (mean, wound tissue): −0.1527
fold change of TACI (mean, wound tissue): −0.2636
fold change of TARC (mean, wound tissue): −0.4322
fold change of TCA-3 (mean, wound tissue): −0.2756
fold change of TCK-1 (mean, wound tissue): −0.4843
fold change of TECK (mean, wound tissue): 0.1734
fold change of TGFb1 (mean, wound tissue): −0.1570
fold change of TNF RI (mean, wound tissue): −0.2939
fold change of TNF RII (mean, wound tissue): −0.1233
fold change of TNFα (mean, wound tissue): 0.1039
fold change of TPO (mean, wound tissue): −0.0215
fold change of TRANCE (mean, wound tissue): 0.0878
fold change of TREM-1 (mean, wound tissue): 0.0703
fold change of TROY (mean, wound tissue): −0.0721
fold change of TSLP (mean, wound tissue): −0.1726
fold change of TWEAK (mean, wound tissue): −0.1667
fold change of TWEAK R (mean, wound tissue): −0.4445
fold change of TremL1 (mean, wound tissue): −0.2695
fold change of VCAM-1 (mean, wound tissue): −0.1357
fold change of VEGF (mean, wound tissue): −0.0295
fold change of VEGF R1 (mean, wound tissue): −0.4184
fold change of VEGF R3 (mean, wound tissue): −0.0705
fold change of VEGF-B (mean, wound tissue): −0.0693
fold change of VEGF-D (mean, wound tissue): −0.0146
fold change of bFGF (mean, wound tissue): −0.2542
fold change of gp130 (mean, wound tissue): 0.1048
fold change of sFRP-3 (mean, wound tissue): −0.1892
